Assay results reported in BindingDB's records for doi:10.1021/jm00366a022 (1984).

How the values were obtained:
[1] = molecular target: Alpha-1 adrenergic receptor (Bos taurus); assay: Binding affinity against alpha-1 adrenergic receptor from calf cerebral cortex, using [3H]prazosin as the radioligand
[2] = molecular target: Alpha-1 adrenergic receptor (Bos taurus); assay: as above; remark: listed apart in the source

| Ki [1] [nM] | Ki [2] [nM] | Compound |
| --- | --- | --- |
| 380 | – | Oc1cccc(NCC2=NCCN2)c1 [3-[(4,5-Dihydro-1H-imidazol-2-ylmethyl)-amino]-phenol] |
| – | 300 | CCN(CC1=NCCN1)c1ccc(C)cc1 [(4,5-Dihydro-1H-imidazol-2-ylmethyl)-ethyl-p-tolyl-amine] |
| – | 424 | Cc1ccc(N(CC2=NCCN2)C2CCCCC2)cc1 [Cyclohexyl-(4,5-dihydro-1H-imidazol-2-ylmethyl)-p-tolyl-amine] |
| 150 | – | Cc1ccc(N(C)CC2=NCCN2)cc1 [(4,5-Dihydro-1H-imidazol-2-ylmethyl)-methyl-p-tolyl-amine] |
| – | 230 | Cc1ccc(NCC2=NCCN2)cc1 [(4,5-Dihydro-1H-imidazol-2-ylmethyl)-p-tolyl-amine] |
